Values of other authors in patent US20220251564A1, “p16INK4a INHIBITOR FOR PREVENTING OR TREATING HUNTINGTON'S DISEASE” (SORBONNE UNIVERSITE, priority 2019, published 2022).

Tested on: neurons
Conditions: in vitro

COc1cc([C@@H]2c3cc4c(cc3[C@@H](O[C@@H]3O[C@@H]5CO[C@@H](C)O[C@H]5[C@H](O)[C@H]3O)[C@H]3COC(=O)[C@H]23)OCO4)cc(OC)c1O [Etoposide]
activation of neurons: activate neurons in vitro
